Experimental findings from patent US11208421B2, “2-carboxypenam compound or salt thereof, pharmaceutical composition containing novel 2-carboxypenam compound or salt thereof, and applications thereof” (priority 2017, dated 2021) are described below.

Converted amounts (≈) assume the structure as drawn.

Common to all, as to format: cell-based
Experiment [1] deals with Pseudomonas aeruginosa AmpC derepression mutant strain S-3028. Description: Antibacterial activity evaluation test (MIC), broth microdilution, AmpC derepression mutant strain S-3028. As to conditions: for MIC Pseudomonas aeruginosa strain S-3028: AmpC derepression mutant, cation-adjusted Mueller Hinton medium, 35° C., 16 to 20 hours; for MIC: Pseudomonas aeruginosa, read-out: MIC Pseudomonas aeruginosa strain S-3028. Here is the method:
(§1) The minimum inhibitory concentration (MIC) was measured according to the Clinical and Laboratory Standards Institute (CLSI) standard method by using the following broth microdilution method.
(§2) As bacteria, a Pseudomonas aeruginosa strain ATCC 27853, a Pseudomonas aeruginosa AmpC derepression mutant strain S-3028, and a Pseudomonas aeruginosa IMP-1-producing strain S-2838 were used.
(§3) The Pseudomonas aeruginosa AmpC-derepression mutant strain S-3028 or the Pseudomonas aeruginosa IMP-1-producing strain S-2838 was cultured on a Mueller Hinton agar medium overnight, thereby preparing test bacterial cells. The obtained test bacterial cells were scraped off, suspended to yield 0.5 McFarland equivalence, and diluted 10-fold to obtain an inoculum. A cation-adjusted Mueller Hinton medium containing a test compound was inoculated with 0.0005 mL of the inoculum, and the cells were cultured at 35° C. for 16 to 20 hours. The minimum drug concentration at which the growth of bacteria was not visually observed was defined as MIC.
A general note: In broth dilution the organism is exposed to a series of concentrations in liquid medium.

Experiment [2] relates to Pseudomonas aeruginosa strain ATCC 27853. Description: Antibacterial activity evaluation test (MIC), broth microdilution, strain ATCC 27853. As to conditions: for MIC Pseudomonas aeruginosa strain ATCC 27853: cation-adjusted Mueller-Hinton medium supplemented with 20 M of apotransferrin, 35° C., 16 to 20 hours; for MIC: Pseudomonas aeruginosa, ATCC27853, read-out: MIC Pseudomonas aeruginosa strain ATCC 27853. Here is the method:
as §1, §2, §3
The MIC of the Pseudomonas aeruginosa ATCC strain 27853 was measured in the same manner as described above by using a cation-adjusted Mueller-Hinton medium supplemented with […] of apotransferrin as a final concentration.

The subject of experiment [3] is Pseudomonas aeruginosa IMP-1-producing strain S-2838. Description: Antibacterial activity evaluation test (MIC), broth microdilution, IMP-1-producing strain S-2838. As to conditions: for MIC Pseudomonas aeruginosa strain S-2838: IMP-1-producing strain, cation-adjusted Mueller Hinton medium, 35° C., 16 to 20 hours; for MIC: Pseudomonas aeruginosa, read-out: MIC Pseudomonas aeruginosa strain S-2838. Here is the method:
as §1, §2, §3

Regarding `COC[C@H](CS[C@]1(C(=O)O)CN2C(=O)[C@@H](NC(=O)/C(=N\OC(C)(C)C(=O)O)c3csc(N)n3)[C@H]2S1)NC(=O)C(=O)c1ccc(O)c(O)c1Cl` [Example 3, (3R,5R,6R)-6-((Z)-2-(2-aminothiazol-4-yl)-2-(((2-carboxypropan-2-yl)oxy)imino)acetamide)-3-(((R)-2-(2-(2-chloro-3,4-dihydroxyphenyl)-2-oxoacetamide)-3-methoxypropyl)thio)-7-oxo-4-thia-1-azabicyclo[3.2.0]heptane-3-carboxylic acid], the “MIC Pseudomonas aeruginosa strain S-3028” value in experiment [1] amounted to 0.5 µg/mL (≈ 0.657 µM). The “MIC Pseudomonas aeruginosa strain ATCC 27853” value in experiment [2] was at most 0.0625 µg/mL. In experiment [3], the “MIC Pseudomonas aeruginosa strain S-2838” value came to 1 µg/mL (≈ 1.31 µM).
Consider `CC(C)(O/N=C(\C(=O)N[C@@H]1C(=O)N2C[C@](SCCNNC(=O)c3ccc(O)c(O)c3Cl)(C(=O)O)S[C@H]12)c1csc(N)n1)C(=O)O` [Example 28, (3R,5R,6R)-6-((Z)-2-(2-aminothiazol-4-yl)-2-(((2-carboxypropan-2-yl)oxy)imino)acetamide)-3-((2-(2-(2-chloro-3,4-dihydroxybenzoyl)hydradienyl)ethyl)thio)-7-oxo-4-thia-1-azabicyclo[3.2.0]heptane-3-carboxylic acid], for which the “MIC Pseudomonas aeruginosa strain S-3028” value in experiment [1] stood at 1 µg/mL (≈ 1.42 µM). The “MIC Pseudomonas aeruginosa strain ATCC 27853” value in experiment [2] amounted to 1 µg/mL (≈ 1.42 µM). In experiment [3], the “MIC Pseudomonas aeruginosa strain S-2838” value was determined as 1 µg/mL (≈ 1.42 µM).
As to `CC(C)(O/N=C(\C(=O)N[C@@H]1C(=O)N2C[C@](SCCNC(=O)C(=O)c3ccc(O)c(O)c3Cl)(C(=O)O)S[C@H]12)c1csc(N)n1)C(=O)O` [Example 1, (3R,5R,6R)-6-((Z)-2-(2-aminothiazol-4-yl)-2-(((2-carboxypropan-2-yl)oxy)imino)acetamide)-3-((2-(2-(2-chloro-3,4-dihydroxyphenyl)-2-oxoacetamide)ethyl)thio)-7-oxo-4-thia-1-azabicyclo[3.2.0]heptane-3-carboxylic acid], in experiment [1], the “MIC Pseudomonas aeruginosa strain S-3028” value stood at 128 µg/mL (≈ 178 µM). For the same compound, the “MIC Pseudomonas aeruginosa strain ATCC 27853” value in experiment [2] worked out at 0.125 µg/mL (≈ 0.174 µM). Further, in experiment [3], the “MIC Pseudomonas aeruginosa strain S-2838” value worked out at 2 µg/mL (≈ 2.79 µM).
On to `CC(C)(O/N=C(\C(=O)N[C@@H]1C(=O)N2C[C@](SCCNC(=O)/C(=N\O)c3ccc(O)c(O)c3Cl)(C(=O)O)S[C@H]12)c1csc(N)n1)C(=O)O` [Example 4, (3R,5R,6R)-6-((Z)-2-(2-aminothiazol-4-yl)-2-(((2-carboxypropan-2-yl)oxy)imino)acetamide)-3-((2-((Z)-2-(2-chloro-3,4-dihydroxyphenyl)-2-(hydroxyimino)acetamide)ethyl)thio)-7-oxo-4-thia-1-azabicyclo[3.2.0]heptane-3-carboxylic acid], for which the “MIC Pseudomonas aeruginosa strain S-3028” value in experiment [1] came out at 8 µg/mL (≈ 10.9 µM). Moreover, in experiment [2], the “MIC Pseudomonas aeruginosa strain ATCC 27853” value is at most 0.0625 µg/mL. For the same compound, the “MIC Pseudomonas aeruginosa strain S-2838” value in experiment [3] turned out to be 32 µg/mL (≈ 43.7 µM).
Turning to `CC(C)(O/N=C(\C(=O)N[C@@H]1C(=O)N2C[C@](SC3CN(C(=O)/C(=N\O)c4ccc(O)c(O)c4Cl)C3)(C(=O)O)SC12)c1csc(N)n1)C(=O)O` (stereo partly drawn) [Example 5, (3R,5R,6R)-6-((Z)-2-(2-aminothiazol-4-yl)-2-(((2-carboxypropan-2-yl)oxy)imino)acetamide)-3-((1-((Z)-2-(2-chloro-3,4-dihydroxyphenyl)-2-(hydroxyimino)acetyl)azetidin-3-yl)thio)-7-oxo-4-thia-1-azabicyclo[3.2.0]heptane-3-carboxylic acid], the results for the minimum inhibitory concentration (MIC) in experiment [1], in experiment [2] and in experiment [3] were 8 µg/mL (≈ 10.8 µM), at most 0.0625 µg/mL and 16 µg/mL (≈ 21.5 µM), respectively.
Turning to `CC(C)(O/N=C(\C(=O)N[C@@H]1C(=O)N2C[C@](SC[C@H]3COCCN3C(=O)c3ccc(O)c(O)c3Cl)(C(=O)O)SC12)c1csc(N)n1)C(=O)O` (stereo partly drawn) [Example 20, (3R,5R,6R)-6-((Z)-2-(2-aminothiazol-4-yl)-2-(((2-carboxypropan-2-yl)oxy)imino)acetamide)-3-((((R)-4-(2-chloro-3,4-dihydroxybenzoyl)morpholin-3-yl)methyl)thio)-7-oxo-4-thia-1-azabicyclo[3.2.0]heptane-3-carboxylic acid], the MIC in experiment [1] is 4 µg/mL (≈ 5.37 µM); in experiment [2], 0.5 µg/mL (≈ 0.671 µM); in experiment [3] it was 4 µg/mL (≈ 5.37 µM).
`CN(CCS[C@]1(C(=O)O)CN2C(=O)[C@@H](NC(=O)/C(=N\OC(C)(C)C(=O)O)c3csc(N)n3)[C@H]2S1)NC(=O)c1ccc(O)c(O)c1Cl` [Example 22, (3R,5R,6R)-6-((Z)-2-(2-aminothiazol-4-yl)-2-(((2-carboxypropan-2-yl)oxy)imino)acetamide)-3-((2-(2-(2-chloro-3,4-dihydroxybenzoyl)-1-methylhydrazinyl)ethyl)thio)-7-oxo-4-thia-1-azabicyclo[3.2.0]heptane-3-carboxylic acid]: the “MIC Pseudomonas aeruginosa strain S-3028” value in experiment [1] is 8 µg/mL (≈ 11.1 µM). Further, the “MIC Pseudomonas aeruginosa strain ATCC 27853” value in experiment [2] was found to be 0.125 µg/mL (≈ 0.174 µM). Also, the “MIC Pseudomonas aeruginosa strain S-2838” value in experiment [3] came to 2 µg/mL (≈ 2.78 µM).
With `CC(C)(O/N=C(\C(=O)N[C@@H]1C(=O)N2C[C@](SCCNC(=O)/C(=N\NC(N)=O)c3cc(O)c(O)cc3Cl)(C(=O)O)S[C@H]12)c1csc(N)n1)C(=O)O` [Example 24, (3R,5R,6R)-6-((Z)-2-(2-aminothiazol-4-yl)-2-(((2-carboxypropan-2-yl)oxy)imino)acetamide)-3-((2-((Z)-2-(2-carbamoylhydrazinylidene)-2-(2-chloro-4,5-dihydroxyphenyl)acetamide)ethyl)thio)-7-oxo-4-thia-1-azabicyclo[3.2.0]heptane-3-carboxylic acid], the MIC in experiment [1] was 8 µg/mL (≈ 10.3 µM); in experiment [2] it was 0.5 µg/mL (≈ 0.646 µM); in experiment [3], 4 µg/mL (≈ 5.17 µM).
Take `COC[C@H](CS[C@]1(C(=O)O)CN2C(=O)[C@@H](NC(=O)/C(=N\OC(C)(C)C(=O)O)c3csc(N)n3)C2S1)NC(=O)c1ccc(O)c(O)c1Cl` (stereo partly drawn) [Example 19, (3R,5R,6R)-6-((Z)-2-(2-aminothiazol-4-yl)-2-(((2-carboxypropan-2-yl)oxy)imino)acetamide)-3-(((R)-2-(2-chloro-3,4-dihydroxybenzamide)-3-methoxypropyl)thio)-7-oxo-4-thia-1-azabicyclo[3.2.0]heptane-3-carboxylic acid]: the MIC in experiment [1] worked out at 1 µg/mL (≈ 1.36 µM); in experiment [2] it was 0.125 µg/mL (≈ 0.17 µM); in experiment [3] it was 1 µg/mL (≈ 1.36 µM).
Take `CC(C)(O/N=C(\C(=O)N[C@@H]1C(=O)N2C[C@](SCCNC(=O)/C(=N\NC(N)=O)c3ccc(O)c(O)c3)(C(=O)O)S[C@H]12)c1csc(N)n1)C(=O)O` [Example 14, (3R,5R,6R)-6-((Z)-2-(2-aminothiazol-4-yl)-2-(((2-carboxypropane-2-yl)oxy)imino)acetamide)-3-((2-(2-(2-carbamoylhydrazono)-2-(3,4-dihydroxyphenyl)acetamide)ethyl)thio)-7-oxo-4-thia-1-azabicyclo[3.2.0]heptane-3-carboxylic acid]: the values for the MIC in experiment [1], in experiment [2] and in experiment [3] were 32 µg/mL (≈ 43.3 µM), 0.25 µg/mL (≈ 0.338 µM) and 1 µg/mL (≈ 1.35 µM), respectively.
The corresponding values for `CO[C@@H](CNC(=O)/C(=N/NC(N)=O)c1ccc(O)c(O)c1Cl)CS[C@]1(C(=O)O)CN2C(=O)[C@@H](NC(=O)/C(=N\OC(C)(C)C(=O)O)c3csc(N)n3)[C@H]2S1` [Example 16, (3R,5R,6R)-6-((Z)-2-(2-aminothiazole-4-yl)-2-(((2-carboxypropan-2-yl)oxy)imino)acetamide)-3-(((S)-3-((E)-2-(2-carbamoylhydrazono)-2-(2-chloro-3,4-dihydroxyphenyl)acetamide)-2-methoxypropyl)thio)-7-oxo-4-thia-1-azabicyclo[3.2.0]heptane-3-carboxylic acid] are 16 µg/mL (≈ 19.6 µM), 0.5 µg/mL (≈ 0.611 µM) and 8 µg/mL (≈ 9.78 µM).
Consider `CC(C)(O/N=C(\C(=O)N[C@@H]1C(=O)N2C[C@](SC3CN(C(=O)C(=O)c4ccc(O)c(O)c4Cl)C3)(C(=O)O)S[C@H]12)c1csc(N)n1)C(=O)O` [Example 2, (3R,5R,6R)-6-((Z)-2-(2-aminothiazol-4-yl)-2-(((2-carboxypropan-2-yl)oxy)imino)acetamide)-3-((1-(2-(2-chloro-3,4-dihydroxyphenyl)-2-oxoacetyl)azetidin-3-yl)thio)-7-oxo-4-thia-1-azabicyclo[3.2.0]heptane-3-carboxylic acid], for which the “MIC Pseudomonas aeruginosa strain S-3028” value in experiment [1] was found to be 4 µg/mL (≈ 5.49 µM). Further, the “MIC Pseudomonas aeruginosa strain ATCC 27853” value in experiment [2] is at most 0.0625 µg/mL. In experiment [3], the “MIC Pseudomonas aeruginosa strain S-2838” value worked out at 16 µg/mL (≈ 21.9 µM).
Regarding `CO[C@@H](CNC(=O)C(=O)c1ccc(O)c(O)c1Cl)CS[C@]1(C(=O)O)CN2C(=O)[C@@H](NC(=O)/C(=N\OC(C)(C)C(=O)O)c3csc(N)n3)C2S1` (stereo partly drawn) [Example 6, (3R,5R,6R)-6-((Z)-2-(2-aminothiazol-4-yl)-2-(((2-carboxypropane-2-yl)oxy)imino)acetamide)-3-(((S)-3-(2-(2-chloro-3,4-dihydroxyphenyl)-2-oxoacetamide)-2-methoxypropyl)thio)-7-oxo-4-thia-1-azabicyclo[3.2.0]heptane-3-carboxylic acid], the values for the MIC in experiment [1], in experiment [2] and in experiment [3] were 4 µg/mL (≈ 5.25 µM), 0.25 µg/mL (≈ 0.328 µM) and 2 µg/mL (≈ 2.63 µM), respectively.

Usually MIC stands for the lowest concentration found to suppress growth.
